{
  "source": "patent US20260256763A1",
  "about": "“Aromatic Amide Derivative, And Preparation Method Therefor And Use Thereof” (Zhejiang Hisun Pharmaceutical Co., Ltd., priority 2023, published 2026)",
  "key": {"[1]": {"target": "T1, recombinant human KIF18A (Homo sapiens, UniProt Q8NI77)", "T1 construct": "purchased GenScript", "T1 sequence (Q8NI77 whole entry)": "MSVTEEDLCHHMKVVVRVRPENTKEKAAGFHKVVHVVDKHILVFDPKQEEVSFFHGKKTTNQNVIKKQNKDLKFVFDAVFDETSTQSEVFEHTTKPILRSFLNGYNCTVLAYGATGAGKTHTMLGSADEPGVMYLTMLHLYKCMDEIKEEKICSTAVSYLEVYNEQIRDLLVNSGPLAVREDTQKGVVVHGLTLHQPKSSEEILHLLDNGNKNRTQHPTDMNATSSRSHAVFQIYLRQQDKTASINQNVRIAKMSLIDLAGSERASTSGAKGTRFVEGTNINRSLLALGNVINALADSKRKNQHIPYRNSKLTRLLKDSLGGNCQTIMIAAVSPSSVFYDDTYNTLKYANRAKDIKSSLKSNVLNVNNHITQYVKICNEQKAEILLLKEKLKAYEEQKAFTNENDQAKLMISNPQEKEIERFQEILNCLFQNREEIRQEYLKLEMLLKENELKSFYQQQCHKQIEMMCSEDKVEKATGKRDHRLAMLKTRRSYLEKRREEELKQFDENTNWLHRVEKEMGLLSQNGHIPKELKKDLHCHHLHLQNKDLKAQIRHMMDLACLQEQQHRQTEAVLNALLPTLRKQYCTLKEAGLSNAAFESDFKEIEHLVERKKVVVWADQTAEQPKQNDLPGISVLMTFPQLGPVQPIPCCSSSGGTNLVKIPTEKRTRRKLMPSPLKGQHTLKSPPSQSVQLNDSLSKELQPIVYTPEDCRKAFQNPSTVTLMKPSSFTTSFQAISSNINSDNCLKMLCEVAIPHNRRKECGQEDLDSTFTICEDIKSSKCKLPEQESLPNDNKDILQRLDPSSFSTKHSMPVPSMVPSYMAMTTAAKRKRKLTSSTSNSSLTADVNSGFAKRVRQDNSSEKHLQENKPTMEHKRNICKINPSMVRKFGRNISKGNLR", "T1 sequence (P68363 whole entry partner)": "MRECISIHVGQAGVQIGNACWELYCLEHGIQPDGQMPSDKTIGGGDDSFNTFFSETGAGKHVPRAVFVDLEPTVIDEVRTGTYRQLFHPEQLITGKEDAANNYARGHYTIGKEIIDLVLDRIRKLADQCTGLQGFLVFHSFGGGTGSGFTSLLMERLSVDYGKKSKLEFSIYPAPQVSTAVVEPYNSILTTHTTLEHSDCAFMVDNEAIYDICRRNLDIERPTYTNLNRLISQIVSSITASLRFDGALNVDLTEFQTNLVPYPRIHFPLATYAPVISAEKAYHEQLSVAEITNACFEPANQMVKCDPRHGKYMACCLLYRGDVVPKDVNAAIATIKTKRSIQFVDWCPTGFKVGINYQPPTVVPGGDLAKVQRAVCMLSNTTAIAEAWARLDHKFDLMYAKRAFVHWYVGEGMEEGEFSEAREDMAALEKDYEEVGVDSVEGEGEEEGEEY", "T1 sequence (Q9BVA1 whole entry partner)": "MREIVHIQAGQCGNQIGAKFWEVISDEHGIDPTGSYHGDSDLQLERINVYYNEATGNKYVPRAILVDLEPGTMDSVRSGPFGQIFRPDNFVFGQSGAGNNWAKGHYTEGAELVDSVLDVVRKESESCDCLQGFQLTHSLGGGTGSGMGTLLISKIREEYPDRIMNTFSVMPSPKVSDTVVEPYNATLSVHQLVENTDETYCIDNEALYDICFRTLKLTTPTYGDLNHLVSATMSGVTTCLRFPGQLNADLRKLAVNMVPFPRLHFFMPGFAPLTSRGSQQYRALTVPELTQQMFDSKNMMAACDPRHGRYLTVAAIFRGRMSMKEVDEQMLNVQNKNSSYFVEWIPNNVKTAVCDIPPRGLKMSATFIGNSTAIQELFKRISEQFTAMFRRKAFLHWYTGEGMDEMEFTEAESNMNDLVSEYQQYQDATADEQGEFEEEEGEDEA", "test": "Inhibition on KIF18A enzyme activity (ADP-Glo)", "type": "biochemical", "details": "recombinant human KIF18A 100 nM, ATP 60 μM", "method_in_brief": "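Recombinant human KIF18A (100 nM final) was preincubated with compound for 20 min at room temperature, then ATP (60 μM final) was added for 20 min. ADP formed was quantified by ADP-Glo as a luminescence read-out.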"}, "[2]": {"test": "Pharmacokinetic testing in mice", "type": "in vivo", "details": "male, mouse, ICR mice, plasma", "experimental": "ICR mice were taken as test animals, and intragastrically administered with a control compound AMG650 and compounds 1, 18 and 29 of the present invention, and then drug concentrations in plasma at different moments were determined by an LC/MS/MS method, so as to study pharmacokinetic characteristics of the compounds of the present invention in the mice.\nControl compound AMG650, and Compounds 1, 18 and 29.\nICR mice, male, 27.3-30.3 g, purchased from Vital River Laboratory Animal Technology Co., Ltd.\nA proper amount of to-be-tested compound was weighed, proper amounts of DMA (N,N-dimethylacetamide), CrEL (polyoxyethylene 35 castor oil) and 5% GS (5% glucose injection) were added in sequence, and the obtained system was evenly mixed by ultrasonic vortex to prepare a 1 mg/mL preparation, wherein DMA, CrEL and 5% GS=10:10:80 (v:v:v).\nICR mice in each to-be-tested compound injection group (9 mice in each group) were fasted overnight and then intragastrically administered with the compound (PO, an administration dosage of the compound was 10 mg/kg and an administration volume of the compound was 10 mL/kg), and were fed 4 hours after administration.\n0.25 hours, 0.5 hours, 1 hour, 2 hours, 4 hours, 8 hours, 10 hours and 24 hours before and after administration, about […] of blood was collected through an orbit, and a complete blood sample was placed in an EDTA-K2-containing anticoagulation tube. The collected blood sample was placed on ice, and plasma was centrifugally separated (centrifugation conditions: 1500 g, 10 minutes). The collected plasma was stored at −40~−20° C. before analysis.\nA content of the to-be-tested compound in the plasma of the mice after intragastric administration was determined by LC-MS/MS."}},
  "data": [
    {"smiles": "CCS(=O)(=O)Nc1ccc(C(=O)Nc2cc3c(c(N4CCC(F)(F)CC4)c2)OCC3)c(N2CCC3(CC2)CC3)c1", "note": "[Example 1, N-(7-(4,4-difluoropiperidin-1-yl)-2,3-dihydrobenzofuran-5-yl)-4-(ethylsulfonamido)-2-(6-azaspiro[2.5]octan-6-yl)benzamide]", "values": [
      {"measurement": "IC50", "setting": "[1]", "result": 52, "unit": "nM"},
      {"measurement": "half-life", "setting": "[2]; 10 mg/kg, oral administration (10 mg/mL), read-out: Half-life period T½ (converted)", "result": 442, "unit": "min"},
      {"measurement": "Cmax", "setting": "[2]; 10 mg/kg, oral administration (10 mg/mL), read-out: Plasma concentration Cmax", "result": 12400, "unit": "ng/mL"},
      {"measurement": "AUC(0-inf)", "setting": "[2]; oral administration (10 mg/kg), read-out: Area under the curve AUC0-∞", "result": 95200, "unit": "ng·h/mL"}
    ]}
  ]
}
